In the NIST ThermoML archive (doi:10.1016/j.jct.2017.10.002):
Values joined by “and” are separate entries in the source; they are usually repeats but may differ in a detail not shown here. Equal entries are not always repeated. ± gives the expanded uncertainty stated by the source.

Assay: molar heat capacity at constant pressure
Conditions: 101.33 kPa, relaxation calorimetry

Structure (SMILES): CCc1ncc[n-]1.CCc1ncc[n-]1.[Zn+2] [zinc(II) 2-ethylimidazolide]
- molar heat capacity at constant pressure (20.19 K, Crystal): 17.81 ± 0.72 J/K/mol
- molar heat capacity at constant pressure (20.5 K, Crystal): 16.98 ± 0.69 J/K/mol and 13.71 ± 0.56 J/K/mol
- molar heat capacity at constant pressure (20.51 K, Glass): 17.11 ± 0.69 J/K/mol
- molar heat capacity at constant pressure (22.14 K, Crystal): 20.77 ± 0.84 J/K/mol
- molar heat capacity at constant pressure (22.42 K, Crystal): 16.31 ± 0.66 J/K/mol
- molar heat capacity at constant pressure (22.43 K, Crystal): 19.56 ± 0.8 J/K/mol
- molar heat capacity at constant pressure (22.43 K, Glass): 19.76 ± 0.8 J/K/mol
- molar heat capacity at constant pressure (24.21 K, Crystal): 23.64 ± 0.96 J/K/mol
- molar heat capacity at constant pressure (24.49 K, Crystal): 22.58 ± 0.92 J/K/mol and 19.45 ± 0.79 J/K/mol
- molar heat capacity at constant pressure (24.5 K, Glass): 22.96 ± 0.93 J/K/mol
- molar heat capacity at constant pressure (25 K, Crystal): 24.79 ± 1 J/K/mol and 20.1 ± 0.82 J/K/mol and 23.3 ± 0.95 J/K/mol
- molar heat capacity at constant pressure (25 K, Glass): 23.65 ± 0.96 J/K/mol
- molar heat capacity at constant pressure (26.43 K, Crystal): 26.91 ± 1.1 J/K/mol
- molar heat capacity at constant pressure (26.75 K, Crystal): 22.61 ± 0.92 J/K/mol
- molar heat capacity at constant pressure (26.76 K, Crystal): 25.8 ± 1 J/K/mol
- molar heat capacity at constant pressure (26.77 K, Glass): 26.23 ± 1.1 J/K/mol
- molar heat capacity at constant pressure (28.91 K, Crystal): 30.23 ± 1.2 J/K/mol
- molar heat capacity at constant pressure (29.23 K, Crystal): 26.38 ± 1.1 J/K/mol
- molar heat capacity at constant pressure (29.24 K, Crystal): 29.64 ± 1.2 J/K/mol
- molar heat capacity at constant pressure (29.25 K, Glass): 30.22 ± 1.2 J/K/mol
- molar heat capacity at constant pressure (30 K, Crystal): 31.85 ± 1.3 J/K/mol and 27.7 ± 1.1 J/K/mol and 30.79 ± 1.3 J/K/mol
- molar heat capacity at constant pressure (30 K, Glass): 31.35 ± 1.3 J/K/mol
- molar heat capacity at constant pressure (31.62 K, Crystal): 34.05 ± 1.4 J/K/mol
- molar heat capacity at constant pressure (31.94 K, Crystal): 30.76 ± 1.2 J/K/mol
- molar heat capacity at constant pressure (31.94 K, Glass): 34.68 ± 1.4 J/K/mol
- molar heat capacity at constant pressure (31.95 K, Crystal): 33.91 ± 1.4 J/K/mol
- molar heat capacity at constant pressure (34.58 K, Crystal): 38.37 ± 1.6 J/K/mol
- molar heat capacity at constant pressure (34.9 K, Crystal): 38.58 ± 1.6 J/K/mol and 35.55 ± 1.4 J/K/mol
- molar heat capacity at constant pressure (34.9 K, Glass): 39.27 ± 1.6 J/K/mol
- molar heat capacity at constant pressure (35 K, Crystal): 38.9 ± 1.6 J/K/mol and 35.64 ± 1.4 J/K/mol and 38.68 ± 1.6 J/K/mol
- molar heat capacity at constant pressure (35 K, Glass): 39.25 ± 1.6 J/K/mol
- molar heat capacity at constant pressure (37.81 K, Crystal): 43 ± 1.7 J/K/mol
- molar heat capacity at constant pressure (38.12 K, Crystal): 40.86 ± 1.7 J/K/mol
- molar heat capacity at constant pressure (38.13 K, Crystal): 43.67 ± 1.8 J/K/mol
- molar heat capacity at constant pressure (38.13 K, Glass): 43.79 ± 1.8 J/K/mol
- molar heat capacity at constant pressure (40 K, Crystal): 45.99 ± 1.9 J/K/mol and 43.91 ± 1.8 J/K/mol and 46.78 ± 1.9 J/K/mol
- molar heat capacity at constant pressure (40 K, Glass): 46.98 ± 1.9 J/K/mol
- molar heat capacity at constant pressure (41.34 K, Crystal): 47.77 ± 1.9 J/K/mol
- molar heat capacity at constant pressure (41.65 K, Crystal): 46.75 ± 1.9 J/K/mol
- molar heat capacity at constant pressure (41.66 K, Crystal): 49.38 ± 2 J/K/mol
- molar heat capacity at constant pressure (41.66 K, Glass): 49.23 ± 2 J/K/mol
- molar heat capacity at constant pressure (45 K, Crystal): 53.17 ± 2.2 J/K/mol and 52.4 ± 2.1 J/K/mol and 54.79 ± 2.2 J/K/mol
- molar heat capacity at constant pressure (45 K, Glass): 54.36 ± 2.2 J/K/mol
- molar heat capacity at constant pressure (45.2 K, Crystal): 53.79 ± 2.2 J/K/mol
- molar heat capacity at constant pressure (45.5 K, Crystal): 53.14 ± 2.2 J/K/mol
- molar heat capacity at constant pressure (45.51 K, Crystal): 55.55 ± 2.3 J/K/mol
- molar heat capacity at constant pressure (45.52 K, Glass): 55.25 ± 2.2 J/K/mol
- molar heat capacity at constant pressure (49.41 K, Crystal): 59.46 ± 2.4 J/K/mol
- molar heat capacity at constant pressure (49.71 K, Crystal): 60.01 ± 2.4 J/K/mol
- molar heat capacity at constant pressure (49.72 K, Crystal): 62.24 ± 2.5 J/K/mol
- molar heat capacity at constant pressure (49.73 K, Glass): 61.57 ± 2.5 J/K/mol
- molar heat capacity at constant pressure (50 K, Crystal): 60.35 ± 2.5 J/K/mol and 60.38 ± 2.5 J/K/mol and 62.49 ± 2.5 J/K/mol
- molar heat capacity at constant pressure (50 K, Glass): 61.68 ± 2.5 J/K/mol
- molar heat capacity at constant pressure (54.02 K, Crystal): 65.55 ± 2.7 J/K/mol
- molar heat capacity at constant pressure (54.31 K, Crystal): 67.15 ± 2.7 J/K/mol
- molar heat capacity at constant pressure (54.32 K, Glass): 68.04 ± 2.8 J/K/mol
- molar heat capacity at constant pressure (54.33 K, Crystal): 68.86 ± 2.8 J/K/mol
- molar heat capacity at constant pressure (59.06 K, Crystal): 72.12 ± 2.9 J/K/mol
- molar heat capacity at constant pressure (59.34 K, Crystal): 74.94 ± 3 J/K/mol
- molar heat capacity at constant pressure (59.35 K, Crystal): 76.53 ± 3.1 J/K/mol
- molar heat capacity at constant pressure (59.35 K, Glass): 75.28 ± 3.1 J/K/mol
- molar heat capacity at constant pressure (60 K, Crystal): 73.51 ± 3 J/K/mol and 75.98 ± 3.1 J/K/mol and 77.48 ± 3.1 J/K/mol
- molar heat capacity at constant pressure (60 K, Glass): 76.22 ± 3.1 J/K/mol
- molar heat capacity at constant pressure (64.56 K, Crystal): 79.28 ± 3.2 J/K/mol
- molar heat capacity at constant pressure (64.85 K, Crystal): 83.06 ± 3.4 J/K/mol
- molar heat capacity at constant pressure (64.85 K, Glass): 82.76 ± 3.4 J/K/mol
- molar heat capacity at constant pressure (64.86 K, Crystal): 84.44 ± 3.4 J/K/mol
- molar heat capacity at constant pressure (70 K, Crystal): 86.38 ± 3.5 J/K/mol and 90.67 ± 3.7 J/K/mol and 92.04 ± 3.7 J/K/mol
- molar heat capacity at constant pressure (70 K, Glass): 89.94 ± 3.7 J/K/mol
- molar heat capacity at constant pressure (70.56 K, Crystal): 86.79 ± 3.5 J/K/mol
- molar heat capacity at constant pressure (70.85 K, Crystal): 91.72 ± 3.7 J/K/mol
- molar heat capacity at constant pressure (70.86 K, Crystal): 93.1 ± 3.8 J/K/mol
- molar heat capacity at constant pressure (70.86 K, Glass): 90.79 ± 3.7 J/K/mol
- molar heat capacity at constant pressure (77.13 K, Crystal): 95.12 ± 3.9 J/K/mol
- molar heat capacity at constant pressure (77.42 K, Crystal): 100.73 ± 4.1 J/K/mol
- molar heat capacity at constant pressure (77.42 K, Glass): 99.43 ± 4 J/K/mol
- molar heat capacity at constant pressure (77.43 K, Crystal): 102.26 ± 4.2 J/K/mol
- molar heat capacity at constant pressure (80 K, Crystal): 98.35 ± 4 J/K/mol and 103.93 ± 4.2 J/K/mol and 105.47 ± 4.3 J/K/mol
- molar heat capacity at constant pressure (80 K, Glass): 102.42 ± 4.2 J/K/mol
- molar heat capacity at constant pressure (84.27 K, Crystal): 104 ± 4.2 J/K/mol
- molar heat capacity at constant pressure (84.6 K, Crystal): 109.85 ± 4.5 J/K/mol
- molar heat capacity at constant pressure (84.61 K, Crystal): 111.93 ± 4.5 J/K/mol
- molar heat capacity at constant pressure (84.61 K, Glass): 108.29 ± 4.4 J/K/mol
- molar heat capacity at constant pressure (90 K, Crystal): 109.29 ± 4.4 J/K/mol and 115.76 ± 4.7 J/K/mol and 117.61 ± 4.8 J/K/mol
- molar heat capacity at constant pressure (90 K, Glass): 113.66 ± 4.6 J/K/mol
- molar heat capacity at constant pressure (92.13 K, Crystal): 112.13 ± 4.5 J/K/mol
- molar heat capacity at constant pressure (92.46 K, Crystal): 118.78 ± 4.8 J/K/mol
- molar heat capacity at constant pressure (92.46 K, Glass): 116.45 ± 4.7 J/K/mol
- molar heat capacity at constant pressure (92.47 K, Crystal): 120.62 ± 4.9 J/K/mol
- molar heat capacity at constant pressure (100 K, Crystal): 119.26 ± 4.8 J/K/mol and 126.37 ± 5.1 J/K/mol and 128.56 ± 5.2 J/K/mol
- molar heat capacity at constant pressure (100 K, Glass): 123.8 ± 5 J/K/mol
- molar heat capacity at constant pressure (100.71 K, Crystal): 118.91 ± 4.8 J/K/mol
- molar heat capacity at constant pressure (101.03 K, Crystal): 127.27 ± 5.2 J/K/mol
- molar heat capacity at constant pressure (101.04 K, Crystal): 129.19 ± 5.2 J/K/mol
- molar heat capacity at constant pressure (101.04 K, Glass): 124.6 ± 5.1 J/K/mol
- molar heat capacity at constant pressure (110 K, Crystal): 128.39 ± 5.2 J/K/mol and 136.02 ± 5.5 J/K/mol and 138.51 ± 5.6 J/K/mol
- molar heat capacity at constant pressure (110 K, Glass): 133.08 ± 5.4 J/K/mol
- molar heat capacity at constant pressure (110.81 K, Crystal): 128.62 ± 5.2 J/K/mol
- molar heat capacity at constant pressure (111.15 K, Crystal): 136.95 ± 5.6 J/K/mol
- molar heat capacity at constant pressure (111.15 K, Glass): 133.87 ± 5.4 J/K/mol
- molar heat capacity at constant pressure (111.16 K, Crystal): 139.25 ± 5.7 J/K/mol
- molar heat capacity at constant pressure (120 K, Crystal): 136.82 ± 5.6 J/K/mol and 144.91 ± 5.9 J/K/mol and 147.68 ± 6 J/K/mol
- molar heat capacity at constant pressure (120 K, Glass): 141.69 ± 5.8 J/K/mol
- molar heat capacity at constant pressure (120.85 K, Crystal): 137.96 ± 5.6 J/K/mol
- molar heat capacity at constant pressure (121.21 K, Crystal): 146.05 ± 5.9 J/K/mol
- molar heat capacity at constant pressure (121.21 K, Glass): 142.99 ± 5.8 J/K/mol
- molar heat capacity at constant pressure (121.23 K, Crystal): 149.18 ± 6.1 J/K/mol
- molar heat capacity at constant pressure (130 K, Crystal): 144.69 ± 5.9 J/K/mol and 153.25 ± 6.2 J/K/mol and 156.24 ± 6.3 J/K/mol
- molar heat capacity at constant pressure (130 K, Glass): 149.79 ± 6.1 J/K/mol
